The source of these data is US11078204B2, “Heterocyclic derivatives as PI3K inhibitors” (Incyte Corporation, priority 2018, dated 2021).

For assay [1], the target named is PI3Kγ (p110γ) Recombinant Human Protein (Homo sapiens (Human), UniProt P48736). As to the kind of experiment: PI3K-γ Scintillation Proximity Assay. In kind it is biochemical. As to conditions: 20 μM PIP2, 2 μM ATP, 13 nM PI3Kγ, 120 min. The text has this: Example B. PI3K-γ Scintillation Proximity Assay
[γ-^33P]ATP (10 mCi/mL) and Wheat Germ Agglutinin (WGA) YSi SPA Scintillation Beads was purchased from Perkin Elmer (Waltham, Mass.). Lipid kinase substrate, D-myo-Phosphatidylinositol 4,5-bisphosphate (PtdInS(4,5)P2)D (+)-sn-1,2-di-O-octanoylglyceryl, 3-O-phospho linked (PIP2), CAS 204858-53-7, was purchased from Echelon Biosciences (Salt Lake City, Utah). PI3Kγ (p110γ) Recombinant Human Protein was purchased from Life technology (Grand Island, N.Y.). ATP, MgCl2, DTT, EDTA, MOPS and CHAPS were purchased from Sigma Aldrich (St. Louis, Mo.).
(§1) The kinase reaction was conducted in polystyrene 384-well Greiner Bio-one white plate from Thermo Fisher Scientific in a final volume of 25 μL. Inhibitors were first diluted serially in DMSO and added to the plate wells before the addition of other reaction components. The final concentration of DMSO in the assay was 2%. The PI3Kγ assay was carried out at room temperature in 20 mM MOPS, pH 6.7, 10 mM MgCl2, 5 mM DTT and CHAPS 0.03%. Reactions were initiated by the addition of ATP, the final reaction mixture consisted of 20 μM PIP2, 2 μM ATP, 0.5 μCi [γ-^33p]ATP, 13 nM PI3Kγ. Reactions were incubated for 120 min and terminated by the addition of 40 μL SPA beads suspended in quench buffer: 163 mM potassium phosphate pH 7.8, 20% glycerol, 25 mM EDTA. The final concentration of SPA beads is 1.0 mg/mL. After the plate sealing, plates were shaken overnight at room temperature and centrifuged at 1500 rpm for 10 min, the radioactivity of the product was determined by scintillation counting on Topcount (PerkinElmer). IC50 determination was performed by fitting the curve of percent of the solvent control activity versus the log of the inhibitor concentration using the GraphPad Prism 6.0 software.
(In a scintillation proximity assay essentially only radioactivity close to the scintillant gives light.)

Assay [2] has as its target PI3Kδ (p110δ/p85α) Recombinant Human Protein (Homo sapiens (Human), UniProt O00329). Nature of the assay: PI3Kδ Scintillation Proximity Assay. The assay is classed as biochemical. Conditions: 20 μM PIP2, 2 μM ATP, 3.4 nM PI3Kδ, 120 min.
Excerpt: Example C. PI3Kδ Scintillation Proximity Assay
[γ-^33P]ATP (10 mCi/mL) and Wheat Germ Agglutinin (WGA) YSi SPA Scintillation Beads was purchased from Perkin Elmer (Waltham, Mass.). Lipid kinase substrate, D-myo-Phosphatidylinositol 4,5-bisphosphate (PtdInS(4,5)P2)D (+)-sn-1,2-di-O-octanoylglyceryl, 3-O-phospho linked (PIP2), CAS 204858-53-7, was purchased from Echelon Biosciences (Salt Lake City, Utah). PI3Kδ (p110δ/p85α) Recombinant Human Protein was purchased from Eurofins (St Charles, Mo.). ATP, MgCl2, DTT, EDTA, MOPS and CHAPS were purchased from Sigma Aldrich (St. Louis, Mo.).
as §1, with “PI3Kδ” for “PI3Kγ”, “[γ-^33P]ATP, 3.4” for “[γ-^33p]ATP, 13”, “PI3Kδ.” for “PI3Kγ.”

Assay [3] deals with Phosphorylated Ribosomal Protein S6 (RPS6) in THP-1 cells. Nature of the assay: THP-1 RPS6 ELISA Assay. As to conditions: Homo sapiens, 2 hours compound, 10 nM MCP-1 for 15 minutes, Phospho-RPS6 ELISA, read-out: PI3Kγ_THP1_RPS6_ELISA IC50. The assay is classed as cell-based. How it is done: Example A. THP-1 RPS6 ELISA Assay To measure the Phosphorylated Ribosomal Protein S6 (RPS6) in cell lysates, THP-1 cells (Human Acute Monocytic Leukemia) are purchased from ATCC (Manassas, Va.) and maintained in RPMI with 10% FBS (Gibco/Life Technologies, Carlsbad, Calif.). For the assay, THP-1 cells are serum starved overnight in RPMI, then plated in RPMI (2×10^5 cells/well in 90 μL) into 96-well flat-bottom tissue culture treated plates (Corning, Corning, N.Y.), in the presence or absence of a concentration range of test compounds. Covered plates are incubated for 2 hours at 37° C., 5% CO2 then treated with or without 10 nM MCP-1 (MYBioSource, San Diego, Calif.) for 15 minutes at 37° C., 5% CO2. Plates are centrifuged at 1600 RPM and supernatants are removed. Cells are lysed in Lysis Buffer (Cell Signaling, Danvers, Mass.) with Protease Inhibitor (Calbiochem/EMD, Germany), PMSF (Sigma, St Louis Mo.), HALTS (Thermo Fisher, Rockford, Ill.) for 30 min on wet ice. Cell lysates are frozen at −80° C. before testing. The lysates are tested in the Human/Mouse/Rat Phospho-RPS6 ELISA (R&D Systems, Inc. Minn, Minn.). The plate is measured using a microplate reader (SpectraMax M5-Molecular Devices, LLC Sunnyvale, Calif.) set to 450 nm with a wavelength correction of 540. IC50 determination is performed by fitting the curve of inhibitor percent inhibition versus the log of the inhibitor concentration using the GraphPad Prism 5.0 software.
In general terms: ELISA stands for enzyme-linked immunosorbent assay.

Counter-ions that a name gives are not always drawn.

Sequence of PI3Kγ (p110γ) Recombinant Human Protein (P48736 whole entry): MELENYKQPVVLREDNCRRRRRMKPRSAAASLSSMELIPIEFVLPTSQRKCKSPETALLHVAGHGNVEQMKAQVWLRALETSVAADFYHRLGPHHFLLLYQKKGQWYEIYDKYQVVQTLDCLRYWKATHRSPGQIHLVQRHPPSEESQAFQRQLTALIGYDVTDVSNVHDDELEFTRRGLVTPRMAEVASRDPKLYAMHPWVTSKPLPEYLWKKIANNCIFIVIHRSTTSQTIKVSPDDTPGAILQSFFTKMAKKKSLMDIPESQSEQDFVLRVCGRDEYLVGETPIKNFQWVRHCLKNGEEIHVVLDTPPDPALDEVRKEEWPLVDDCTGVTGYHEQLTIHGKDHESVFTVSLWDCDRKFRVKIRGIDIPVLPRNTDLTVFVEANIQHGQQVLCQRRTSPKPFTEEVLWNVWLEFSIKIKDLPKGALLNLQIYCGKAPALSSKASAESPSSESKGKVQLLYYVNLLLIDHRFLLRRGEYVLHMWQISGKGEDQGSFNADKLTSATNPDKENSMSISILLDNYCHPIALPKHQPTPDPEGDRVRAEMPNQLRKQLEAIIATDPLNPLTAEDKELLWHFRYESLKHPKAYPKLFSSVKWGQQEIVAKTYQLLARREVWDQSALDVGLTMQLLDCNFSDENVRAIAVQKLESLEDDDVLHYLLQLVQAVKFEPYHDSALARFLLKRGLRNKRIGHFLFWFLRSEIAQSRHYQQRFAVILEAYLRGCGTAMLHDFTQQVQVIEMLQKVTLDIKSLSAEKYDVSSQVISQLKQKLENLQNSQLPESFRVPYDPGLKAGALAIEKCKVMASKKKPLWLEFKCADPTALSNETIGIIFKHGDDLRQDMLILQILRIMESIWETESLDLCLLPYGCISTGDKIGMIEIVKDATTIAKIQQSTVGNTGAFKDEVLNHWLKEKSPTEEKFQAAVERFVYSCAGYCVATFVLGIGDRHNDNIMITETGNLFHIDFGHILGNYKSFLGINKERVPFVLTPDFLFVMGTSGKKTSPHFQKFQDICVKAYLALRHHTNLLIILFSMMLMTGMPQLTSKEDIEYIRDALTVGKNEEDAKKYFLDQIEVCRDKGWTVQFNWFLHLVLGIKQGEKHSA
Sequence of PI3Kδ (p110δ/p85α) Recombinant Human Protein (O00329 whole entry): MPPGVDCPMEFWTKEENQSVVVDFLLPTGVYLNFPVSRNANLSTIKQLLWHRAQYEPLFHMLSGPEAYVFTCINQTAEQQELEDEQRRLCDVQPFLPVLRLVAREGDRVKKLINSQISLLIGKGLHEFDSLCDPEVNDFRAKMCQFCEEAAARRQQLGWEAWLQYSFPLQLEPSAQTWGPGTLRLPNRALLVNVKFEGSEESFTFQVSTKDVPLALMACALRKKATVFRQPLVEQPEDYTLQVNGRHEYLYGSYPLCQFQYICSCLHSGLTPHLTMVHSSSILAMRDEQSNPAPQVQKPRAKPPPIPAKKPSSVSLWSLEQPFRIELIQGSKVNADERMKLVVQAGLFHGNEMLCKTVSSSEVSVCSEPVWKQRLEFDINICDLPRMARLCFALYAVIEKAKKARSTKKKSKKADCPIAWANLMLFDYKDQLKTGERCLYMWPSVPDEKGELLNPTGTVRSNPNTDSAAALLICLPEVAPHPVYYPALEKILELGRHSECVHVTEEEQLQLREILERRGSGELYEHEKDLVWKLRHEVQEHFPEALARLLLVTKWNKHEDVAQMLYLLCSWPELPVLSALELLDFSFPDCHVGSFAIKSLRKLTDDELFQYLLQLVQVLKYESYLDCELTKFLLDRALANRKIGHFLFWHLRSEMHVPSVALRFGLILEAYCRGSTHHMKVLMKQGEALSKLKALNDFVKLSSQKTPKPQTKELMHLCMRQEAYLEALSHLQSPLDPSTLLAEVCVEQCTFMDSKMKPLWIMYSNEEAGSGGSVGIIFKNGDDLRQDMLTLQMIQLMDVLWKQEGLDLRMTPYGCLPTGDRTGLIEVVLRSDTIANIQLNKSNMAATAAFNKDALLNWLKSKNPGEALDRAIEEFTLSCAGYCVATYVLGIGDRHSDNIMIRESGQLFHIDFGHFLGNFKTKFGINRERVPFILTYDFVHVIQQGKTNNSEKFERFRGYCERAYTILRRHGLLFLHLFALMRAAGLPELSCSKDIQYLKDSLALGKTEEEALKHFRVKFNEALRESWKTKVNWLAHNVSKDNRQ
Sequence of PI3Kδ (p110δ/p85α) Recombinant Human Protein (P27986 whole entry partner): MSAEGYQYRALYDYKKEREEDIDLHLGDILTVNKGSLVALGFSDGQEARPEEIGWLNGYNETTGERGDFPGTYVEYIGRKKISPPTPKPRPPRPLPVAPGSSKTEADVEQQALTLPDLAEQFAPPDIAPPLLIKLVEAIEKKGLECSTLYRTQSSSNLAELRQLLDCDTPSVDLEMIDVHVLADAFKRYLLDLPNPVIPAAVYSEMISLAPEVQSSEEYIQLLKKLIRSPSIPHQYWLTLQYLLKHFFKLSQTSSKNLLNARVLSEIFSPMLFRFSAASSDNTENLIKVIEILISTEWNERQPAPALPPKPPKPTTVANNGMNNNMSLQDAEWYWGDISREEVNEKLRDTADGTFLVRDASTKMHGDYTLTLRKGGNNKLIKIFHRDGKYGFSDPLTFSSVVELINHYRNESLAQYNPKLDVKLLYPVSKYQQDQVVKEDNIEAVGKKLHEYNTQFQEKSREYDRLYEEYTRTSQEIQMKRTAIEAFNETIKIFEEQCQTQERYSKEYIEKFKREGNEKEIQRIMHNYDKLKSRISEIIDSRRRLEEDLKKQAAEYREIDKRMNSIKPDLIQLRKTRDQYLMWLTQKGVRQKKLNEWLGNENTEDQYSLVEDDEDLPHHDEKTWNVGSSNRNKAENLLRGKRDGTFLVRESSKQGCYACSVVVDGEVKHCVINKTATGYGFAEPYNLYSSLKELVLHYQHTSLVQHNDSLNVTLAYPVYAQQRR

Regarding `C[C@@H](C1CC1)N1Cc2cc(-c3cnc4c(N)nc(C(=O)N5CC(C)(C)C5)cn34)cc(S(C)(=O)=O)c2C1=O` [Example 29c, (S)-5-(8-Amino-6-(3,3-dimethylazetidine-1-carbonyl)imidazo[1,2-a]pyrazin-3-yl)-2-(1-cyclopropylethyl)-7-(methylsulfonyl)isoindolin-1-one, trifluoroacetate salt], the values for the IC50 in assay [1], in assay [2] and in assay [3] were not above 100 nM, not above 500 nM and less than 1000 nM, respectively.

Regarding `Cc1ncc(-c2cn3c(-c4cc5c(c(S(C)(=O)=O)c4)C(=O)N([C@@H](C)C4CC4)C5)cnc3c(N)n2)s1` [Example 34, (S)-5-(8-Amino-6-(2-methylthiazol-5-yl)imidazo[1,2-a]pyrazin-3-yl)-2-(1-cyclopropylethyl)-7-(methylsulfonyl)isoindolin-1-one, trifluoroacetate salt], the IC50 in assay [1], in assay [2] and in assay [3] was not above 100 nM each time.

`CC(C1CC1)n1cc2cc(-c3cnc4c(N)ncnn34)cnc2n1` (stereo not drawn) [Example 25, 7-(2-(1-Cyclopropylethyl)-2H-pyrazolo[3,4-b]pyridin-5-yl)imidazo[2,1-f][1,2,4]triazin-4-amine trifluoroacetate salt]: the figures for the half-inhibitory concentration (IC50) in assay [1], in assay [2] and in assay [3] were not above 100 nM, not below 2000 nM and not below 1000 nM, respectively.

As to `C[C@@H](C1CC1)N1Cc2cc(-c3cnc4c(N)nc(C(=O)NC5CCOCC5)cn34)cc(S(C)(=O)=O)c2C1=O` [Example 29, (S)-8-Amino-3-(2-(1-cyclopropylethyl)-7-(methylsulfonyl)-1-oxoisoindolin-5-yl)-N-(tetrahydro-2H-pyran-4-yl)imidazo[1,2-a]pyrazine-6-carboxamide, trifluoroacetate salt], the IC50 – broadly, the midpoint of a concentration-inhibition curve – in assay [1] is not above 100 nM; in assay [2], not above 500 nM; in assay [3], less than 1000 nM.

Regarding `C[C@@H](C1CC1)N1Cc2cc(-c3cnc4c(N)nc(C(=O)N5CCC5)cn34)cc(S(C)(=O)=O)c2C1=O` [Example 29a, (S)-5-(8-Amino-6-(azetidine-1-carbonyl)imidazo[1,2-a]pyrazin-3-yl)-2-(1-cyclopropylethyl)-7-(methylsulfonyl)isoindolin-1-one, trifluoroacetate salt], the IC50 in assay [1] is not above 100 nM; in assay [2] it was less than 2000 nM; in assay [3] it was not below 1000 nM.

Turning to `C[C@@H](C1CC1)N1Cc2cc(-c3cnc4c(N)nc(-c5ccnn5C)cn34)cc(S(C)(=O)=O)c2C1=O` [Example 36, (S)-5-(8-Amino-6-(1-methyl-1H-pyrazol-5-yl)imidazo[1,2-a]pyrazin-3-yl)-2-(1-cyclopropylethyl)-7-(methylsulfonyl)isoindolin-1-one, trifluoroacetate salt], the results for the IC50 in assay [1], in assay [2] and in assay [3] were not above 100 nM, not above 500 nM and not above 500 nM, respectively.

Turning to `C[C@@H](C1CC1)N1Cc2cc(-c3cnc4c(N)ncnn34)cc(S(C)(=O)=O)c2C1=O` [Example 8, (S)-5-(4-Aminoimidazo[2,1-f][1,2,4]triazin-7-yl)-2-(1-cyclopropylethyl)-7-(methylsulfonyl)isoindolin-1-one], the values for the IC50 in assay [1], in assay [2] and in assay [3] were not above 100 nM, not above 500 nM and less than 1000 nM, respectively.

For the compound `CC(O)c1cc(-c2cnc3c(N)ncnn23)cc2c1C(=O)N([C@@H](C)C1CC1)C2` (mixture of isomers) [Example 16, 5-(4-Aminoimidazo[2,1-f][1,2,4]triazin-7-yl)-2-((S)-1-cyclopropylethyl)-7-(1-hydroxyethyl)isoindolin-1-one trifluoroacetate salt], the IC50 in assay [1] was not above 100 nM; in assay [2], not above 500 nM; in assay [3], not below 1000 nM.

In the case of `C[C@@H](C1CC1)N1Cc2cc(-c3cnc4c(N)ncnn34)cc(C(O)(CO)C(F)(F)F)c2C1=O` (mixture of isomers) [Example 39, 5-(4-Aminoimidazo[2,1-f][1,2,4]triazin-7-yl)-2-((S)-1-cyclopropylethyl)-7-(1,1,1-trifluoro-2,3-dihydroxypropan-2-yl)isoindolin-1-one, trifluoroacetate salt], the IC50 in assay [1] is not above 100 nM; in assay [2], less than 2000 nM; in assay [3] it was not below 1000 nM.
